Data published in patent US20250161307A1, “PYRAZOLOPYRIMIDINES AS MODULATORS OF SPERMINE OXIDASE” (Janssen Pharmaceutica NV, priority 2022, published 2025).
Where a name gives a salt, the structure may show the parent alone.

Assays:
[1] = target: SMOX (Homo sapiens (Human), UniProt Q9NWM0); assay: Human SMOX assay (HyPerBlu chemiluminescent detection of hydrogen peroxide); format: biochemical; settings: 2.5 nM full length hSMOX, spermine substrate, 1 h at room temperature, luminescence read; read-out: SMOx_IC50
SMOX, sequence (Q9NWM0 whole entry): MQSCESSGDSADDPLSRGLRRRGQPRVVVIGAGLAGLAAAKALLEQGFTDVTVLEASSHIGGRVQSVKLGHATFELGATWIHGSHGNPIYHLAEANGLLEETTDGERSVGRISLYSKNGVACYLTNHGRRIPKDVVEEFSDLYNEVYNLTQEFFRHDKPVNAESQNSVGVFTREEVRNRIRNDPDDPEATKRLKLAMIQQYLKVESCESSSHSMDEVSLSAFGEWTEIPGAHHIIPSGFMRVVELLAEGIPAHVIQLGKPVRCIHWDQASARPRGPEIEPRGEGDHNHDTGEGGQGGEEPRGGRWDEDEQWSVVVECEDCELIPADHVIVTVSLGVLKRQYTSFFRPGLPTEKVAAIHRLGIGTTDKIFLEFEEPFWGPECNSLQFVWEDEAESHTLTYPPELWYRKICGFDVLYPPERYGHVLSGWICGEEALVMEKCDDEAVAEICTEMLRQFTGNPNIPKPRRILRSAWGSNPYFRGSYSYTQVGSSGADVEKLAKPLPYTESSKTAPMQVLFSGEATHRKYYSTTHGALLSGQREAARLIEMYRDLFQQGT
Description: (§1) The direct detection of hydrogen peroxide produced from the enzymatic reaction of hSMOX or hPAOX in a biochemical assay format was measured using HyPerBlu (Lumigen, Southfield, MI), a small molecule boronate probe that reacts with hydrogen peroxide to generate a chemiluminescent signal. Inhibition of hSMOX or hPAOX enzyme results in a decrease in luminescence.
Test compounds (75 nL) dissolved in DMSO were added to a 384-well white assay plate (Greiner Bio-one, catalog #784075) using an ECHO Acoustic Dispenser (Labcyte). Each compound was serially diluted 3-fold in DMSO to prepare an 11-point dose response curve (columns 1-22). Column 23 and 24 contained 75 nL of 2 mM chlorhexidine and DMSO, respectively, to represent the 100% inhibited versus the neutral control reactions.
Subsequently, 3 μL/well of the substrate solution prepared in assay buffer (10 mM Hepes, pH 7.4, 150 mM NaCl, 1 mM EGTA, 0.01% Pluronic F-127, 0.05% ovalbumin) was dispensed into the assay plate followed by 3 μL/well of full length hSMOX enzyme with an N-terminal His tag from E. coli prepared in assay buffer to initiate the reactions. After a 1 h incubation at room temperature, 6 μL/well of HyPerBlu was added. After a 30 min incubation, the hydrogen peroxide product generated from the hSMOX reactions was measured using an endpoint luminescence read on the PHERAStar FS/FSX microplate reader (BMG LABTECH).
The final assay conditions included 10 mM Hepes, pH 7.4, 150 mM NaCl, 1 mM EGTA, 0.01% Pluronic F-127, 0.05% ovalbumin, 2.5 nM hSMOX, 30 µM spermine, and 1.25% DMSO.
Dose-response curves were fit and compound IC50 values were determined using Genedata Screener (Genedata AG).

[2] = target: hPAOX (Homo sapiens (Human), UniProt Q6QHF9); assay: Human PAOX assay (HyPerBlu chemiluminescent detection of hydrogen peroxide); format: biochemical; settings: 60 pM recombinant PAOX, 20 μM N-acetylspermine substrate
hPAOX, sequence (Q6QHF9 whole entry): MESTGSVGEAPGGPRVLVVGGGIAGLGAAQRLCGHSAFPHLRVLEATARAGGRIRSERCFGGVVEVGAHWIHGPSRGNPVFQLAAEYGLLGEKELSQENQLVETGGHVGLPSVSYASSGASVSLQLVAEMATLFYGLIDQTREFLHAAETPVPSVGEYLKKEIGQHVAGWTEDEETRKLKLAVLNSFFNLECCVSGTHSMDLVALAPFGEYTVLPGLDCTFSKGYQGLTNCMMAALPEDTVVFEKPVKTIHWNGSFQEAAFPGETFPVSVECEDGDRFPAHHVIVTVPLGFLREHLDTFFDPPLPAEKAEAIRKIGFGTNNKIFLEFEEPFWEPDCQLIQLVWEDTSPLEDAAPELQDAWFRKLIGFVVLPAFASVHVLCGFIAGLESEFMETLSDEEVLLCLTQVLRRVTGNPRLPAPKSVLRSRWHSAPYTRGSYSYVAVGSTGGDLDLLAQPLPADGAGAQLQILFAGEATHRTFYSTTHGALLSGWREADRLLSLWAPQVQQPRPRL
Description: as §1
The hPAOX assay was run and the data analyzed similarly to the hSMOX assay described above, except the reactions contained 60 pM recombinant PAOX with an N-terminal His tag expressed from sf9 insect cells and used 20 μM N-acetylspermine as the substrate.

SMILES	IC50 [1]	IC50 [2]
COc1ccccc1-c1cc(-c2ccccc2)nc2cc(C(=O)NCCCn3ccnc3)nn12 [Example 80, N-(3-(1H-imidazol-1-yl)propyl)-7-(2-methoxyphenyl)-5-phenylpyrazolo[1,5-a]pyrimidine-2-carboxamide]	285 nM	289 nM
CN1CC[C@H](NC(=O)c2cc3nc(-c4ccccc4)cc(N4CCCCC4)n3n2)C1 (single isomer, unassigned) [Example 73, (*S)—N-(1-methylpyrrolidin-3-yl)-5-phenyl-7-(piperidin-1-yl)pyrazolo[1,5-a]pyrimidine-2-carboxamide trifluoroacetate]	1030 nM	4210 nM
CN1CC[C@@H](NC(=O)c2cc3nc(-c4ccccc4)cc(N4CCCCC4)n3n2)C1 (single isomer, unassigned) [Example 72, (*R)—N-(1-methylpyrrolidin-3-yl)-5-phenyl-7-(piperidin-1-yl)pyrazolo[1,5-a]pyrimidine-2-carboxamide trifluoroacetate]	1010 nM	7140 nM
CC(C)Cc1cc(-c2ccccc2)nc2cc(C(=O)NCCCn3ccnc3)nn12 [Example 112, N-(3-(1H-imidazol-1-yl)propyl)-7-isobutyl-5-phenylpyrazolo[1,5-a]pyrimidine-2-carboxamide]	1630 nM	1940 nM
O=C(NCCCn1ccnc1)c1cc2nc(-c3ccccc3)cc(C3CCCCN3)n2n1 (stereo not shown) [Example 114, N-(3-(1H-imidazo-1-yl)propyl)-5-phenyl-7-(piperidin-2.yl)pyrazolo[1,5-a]pyrimidine-2-carboxamide]	776 nM	8460 nM
O=C(NCCCn1ccnc1)c1cc2nc(-c3ccccc3)cc(C3CC3)n2n1 [Example 113, N-(3-(1H-imidazol-1-yl)propyl)-7-cyclopropyl-5-phenylpyrazolo[1,5-a]pyrimidine-2-carboxamide]	1200 nM	2290 nM
COc1cccc(-c2cc(-c3ccccc3)nc3cc(C(=O)NCCCn4ccnc4)nn23)c1 [Example 82, N-(3-(1H-imidazol-1-yl)propyl)-7-(3-methoxyphenyl)-5-phenylpyrazolo[1,5-a]pyrimidine-2-carboxamide]	256 nM	291 nM
O=C(NCCCn1ccnc1)c1cc2nc(-c3ccccc3)cc(-c3ccc4nonc4c3)n2n1 [Example 84, N-(3-(1H-imidazol-1-yl)propyl)-7-(benzo[c][1,2,5]oxadiazol-5-yl)-5-phenylpyrazolo[1,5-a]pyrimidine-2-carboxamide]	330 nM	1310 nM
O=C(NCCCn1ccnc1)c1cc2nc(-c3ccccc3)cc(-c3ccncc3)n2n1 [Example 97, N-(3-(1H-imidazol-1-yl)propyl)-5-phenyl-7-(pyridin-4-yl)pyrazolo[1,5-a]pyrimidine-2-carboxamide]	4570 nM	3610 nM
O=C(NCCCn1ccnc1)c1cc2nc(-c3ccccc3)cc(N3CCC3)n2n1 [Example 56, N-(3-(1H-Imidazol-1-yl)propyl)-7-(azetidin-1-yl)-5-phenylpyrazolo[1,5-a]pyrimidine-2-carboxamide]	874 nM	3730 nM
O=C(NCCCn1ccnc1)c1cc2nc(-c3ccccc3)cc(N3CCOCC3)n2n1 [Example 59, N-(3-(1H-Imidazol-1-yl)propyl)-7-morpholino-5-phenylpyrazolo[1,5-a]pyrimidine-2-carboxamide]	2880 nM	5710 nM
COc1ccc(-c2cc(-c3ccccc3)nc3cc(C(=O)NCCCn4ccnc4)nn23)cc1 [Example 79, N-(3-(1H-imidazol-1-yl)propyl)-7-(4-methoxyphenyl)-5-phenylpyrazolo[1,5-a]pyrimidine-2-carboxamide]	242 nM	

Further lines, results first:

IC50 [1]	IC50 [2]	SMILES
567 nM	10300 nM	CN(CCCn1ccnc1)C(=O)c1cc2nc(-c3ccccc3)cc(-c3ccccc3)n2n1 [Example 11, N-(3-(1H-Imidazol-1-yl)propyl)-N-methyl-5,7-diphenylpyrazolo[1,5-a]pyrimidine-2-carboxamide]
523 nM	362 nM	O=C(NCCCN1CCC1)c1cc2nc(-c3ccccc3)cc(-c3ccccc3)n2n1 [Example 35, N-(3-(Azetidin-1-yl)propyl)-5,7-diphenylpyrazolo[1,5-a]pyrimidine-2-carboxamide]
907 nM	1940 nM	CN1CCC(CNC(=O)c2cc3nc(-c4ccccc4)cc(-c4ccccc4)n3n2)CC1 [Example 24, N-((1-Methylpiperidin-4-yl)methyl)-5,7-diphenylpyrazolo[1,5-a]pyrimidine-2-carboxamide]
282 nM	213 nM	O=C(NC1CNC1)c1cc2nc(-c3ccccc3)cc(-c3ccccc3)n2n1 [Example 115, N-(azetidin-3-yl)-5,7-diphenylpyrazolo[1,5-a]pyrimidine-2-carboxamide]
681 nM	818 nM	Cc1ccc(-c2cc(-c3ccccc3)nc3cc(C(=O)NCCCn4ccnc4)nn23)cc1 [Example 83, N-(3-(1H-imidazol-1-yl)propyl)-5-phenyl-7-(p-tolyl)pyrazolo[1,5-a]pyrimidine-2-carboxamide]
164 nM	485 nM	CN1CC(NC(=O)c2cc3nc(-c4ccc(F)cc4)cc(-c4ccccc4)n3n2)C1 [Example 106, 5-(4-fluorophenyl)-N-(1-methylazetidin-3-yl)-7-phenylpyrazolo[1,5-a]pyrimidine-2-carboxamide]
900 nM	2100 nM	O=C(NCCCc1cccnc1)c1cc2nc(-c3ccccc3)cc(-c3ccccc3)n2n1 [Example 31, 5,7-Diphenyl-N-(3-(pyridin-3-yl)propyl)pyrazolo[1,5-a]pyrimidine-2-carboxamide]
273 nM	13300 nM	CN1CC(NC(=O)c2nn3c(-c4ccccc4)cc(-c4ccccc4)nc3c2C#N)C1 [Example 53, 3-Cyano-N-(1-methylazetidin-3-yl)-5,7-diphenylpyrazolo[1,5-a]pyrimidine-2-carboxamide]
4360 nM	4540 nM	O=C(NC1CN(Cc2ccccc2)C1)c1cc2nc(-c3ccccc3)cc(-c3ccccc3)n2n1 [Example 3, N-(1-Benzylazetidin-3-yl)-5,7-diphenylpyrazolo[1,5-a]pyrimidine-2-carboxamide]
33 nM	5410 nM	CN1CC(NC(=O)c2nn3c(-c4ccccc4)cc(-c4ccccc4)nc3c2I)C1 [Example 46, 3-Iodo-N-(1-methylazetidin-3-yl)-5,7-diphenylpyrazolo[1,5-a]pyrimidine-2-carboxamide]
230 nM	103 nM	CNCCCNC(=O)c1cc2nc(-c3ccccc3)cc(-c3ccccc3)n2n1 [Example 118, N-(3-(methylamino)propyl)-5,7-diphenylpyrazolo[1,5-a]pyrimidine-2-carboxamide]
2210 nM	6780 nM	CN1CC(C)(NC(=O)c2cc3nc(-c4ccccc4)cc(-c4ccccc4)n3n2)C1 [Example 42, N-(1,3-Dimethylazetidin-3-yl)-5,7-diphenylpyrazolo[1,5-a]pyrimidine-2-carboxamide]
1490 nM	30300 nM	Cc1c(C(=O)NCC2(C)CCN(C)C2)nn2c(-c3ccccc3)cc(-c3ccccc3)nc12 (stereo not shown) [Example 54, N-((1,3-Dimethylpyrrolidin-3-yl)methyl)-3-methyl-5,7-diphenylpyrazolo[1,5-a]pyrimidine-2-carboxamide]
